Laboratory results published in patent US10702575B2, “Pharmaceutical composition for preventing or treating mycobacterium species infection and method using the same” (Seoul National University R&DB Foundation, priority 2017, dated 2020).
≈ marks a conversion by molar mass, not a printed value. *1 amine or outer side, *2 acyl side, *3 side chain or, on linkers, in order; H or OH if unused. Where a SMILES comes first, the peptide text is derived from it. Bridges are numbered along the chain shown (N, C = ends). [ ]: non-standard residue; d: D form. The star is where a group is joined. ξ: configuration not given here. NMeTrp(4-OMe) = CN[CH](Cc1c[nH]c2cccc(OC)c12)C(=O)O; X1 = O=C(C(N[*:1])C(O)c1ccccc1)[*:2]; ξNMe2Val = CC(C)C(C(=O)*)N(C)C; NMeT = CN[CH](C(=O)O)[CH](C)O; NMeL = CN[CH](CC(C)C)C(=O)O; NMeV = CN[CH](C(=O)O)C(C)C

Columns and labels:
LC3 = LC3 immunoblotting of macrophage cytolysate; format: cell-based, mouse; conditions: for amount of LC3-II after pre-treatment, compared with treatment with OMS-A or OMS-B (FIG. 7B): pre-treatment with 10 μM 3-MA or 100 nM Baf-A before OMS-A or OMS-B; for amount of LC3-II (FIG. 7A): 1 μM, 5 μM, 10 μM, about 24 hours, macrophage
Procedure: The obtained cytolysate was subjected to immunoblotting using anti-LC3 antibody (available from Cell Signaling) and anti-β-actin antibody (available from Santa Cruz). The results thereof are shown in FIG. 7A (“U” represents “untreated”). Further, in the case of pre-treatment of a macrophage with 10 μM of 3-methyladenine (3-MA), which is an autophagy inhibitor, or 100 nM of Bafilomycin A1 (Baf-A), which is an H^+-ATPase inhibitor, the immunoblot images of the macrophage are shown in FIG. 7B (“U” represents “untreated”, and “SC” represents “solvent control”).

NF-κB = format: cell-based, mouse; conditions: 1 μM, 5 μM, 10 μM, about 6 hours
LC3B = experiment: flow cytometry of macrophage with anti-LC3B antibody; format: cell-based, mouse; conditions: 10 μM, about 24 hours
Procedure: Subsequently, a mean fluorescence intensity (MFI) of the macrophage was measured using the anti-LC3B antibody (available from Cell Signaling) according to flow cytometry.

Mtb phagosome = experiment: co-localization of Mtb phagosome with LC3 or LAMP2 in macrophage; format: cell-based, mouse; conditions: 10 μM, about 24 hours, ERFP-Mtb macrophage
Mtb H37Rv strain = format: cell-based, Mycobacterium tuberculosis; conditions: REMA; for anti-Mycobacterium tuberculosis activity as compared with INH, EMB, and SQ109 (FIG. 2): RFU vs concentration
[1] = tested on: AMP-activated protein kinase (AMPK) cell signaling pathway; format: cell-based, mouse
macrophage = experiment: mCherry-EGFP-LC3B autophagic flux in transfected macrophage; conditions: 10 μM, about 24 hours
Description: Further, a macrophage was transfected with a retrovirus vector that expresses mCherry-enhanced green fluorescent protein (EGFP)-LC3B. […] Fluorescent images of the transfected macrophage were obtained, which are shown in FIG. 9 (“UN” represented “untreated”, and “N” represents “nucleus”).

[2] = tested on: Bone-marrow-derived macrophages (BMDM); experiment: LC3 puncta formation assay in macrophage; format: cell-based, mouse; conditions: 10 μM, about 24 hours
Procedure: LC3 puncta formation and lipidation assay (Eisuke and Noboru, Autophagy, 2010, vol. 6, p. 764-776), which is mainly used in macrophage autophagy measurement, was performed. 10 μM of OMS-A or 10 μM of OMS-B was added to BMDM prepared in Section 4, and then cultured for about 24 hours. As a negative control, PBS was used. Subsequently, macrophage was stained with 4′,6-diamidino-2-phenylindole (DAPI, available from Sigma) and anti-LC3 antibody (available from Cell Signaling), and the number of LC3 puncta per macrophage was measured. The images of the stained macrophages are shown in FIG. 6A (“UN” represents “untreated”), and the number of LC3 puncta per macrophage are shown in FIG. 6B (**: p<0.01).

M. marinum = experiment: Mycobacterium marinum-Drosophila melanogaster infection system; format: in vivo; conditions: for viability of Drosophila melanogaster infected with M. marinum (FIG. 5A): OMS-A 1 μM or 10 μM, AMK 1 μg/ml in culture medium, about 30 days

SMILES | amount of LC3-II after pre-treatment, compared with treatment with OMS-A or OMS-B (FIG. 7B) (LC3) | amount of LC3-II (FIG. 7A) (LC3) | NF-κB luciferase activity (FIG. 12B) (NF-κB) | LC3B expression, mean fluorescence intensity (FIG. 8) (LC3B) | co-localization of LAMP2 and Mtb phagosome (FIGS. 10C, 10D) (Mtb phagosome) | co-localization of LC3 and Mtb phagosome (FIGS. 10A, 10B) (Mtb phagosome) | MIC50 (bacterial growth 50% MIC) (Mtb H37Rv strain) | anti-Mycobacterium tuberculosis activity as compared with INH, EMB, and SQ109 (FIG. 2) (Mtb H37Rv strain) | phoshorylation in Ser78 (S79) of ACC (FIGS. 11A, 11B) [1] | phoshorylation in Thr172 of AMPKα (FIGS. 11A, 11B) [1] | number of red puncta, mCherry-EGFP-LC3B (FIG. 9) (macrophage) | LC3 puncta formation per macrophage (FIGS. 6A, 6B) [2] | viability of Drosophila melanogaster infected with M. marinum (FIG. 5A) (M. marinum) | CFUs of M. marinum present in Drosophila melanogaster (FIG. 5B) (M. marinum; 1 μM or 10 μM OMS-A, compared with negative control (SC))
CO/C1=C\C(C)=C\[C@@H](C)[C@@H](O)[C@@H](C)C/C(C)=C/C=C/[C@H](OC)[C@@H]([C@@H](C)[C@@H](O)[C@H](C)[C@@]2(O)C[C@@H](O)[C@H](C)[C@@H](C(C)C)O2)OC1=O [Baf-A, Bafilomycin A1, reference compound] | increased | – | – | – | – | – | – | – | – | – | – | – | – | –
COc1cccc2[nH]cc(CC3C(=O)NC(C(C)C)C(=O)NC(C(O)c4ccccc4)C(=O)NC(C(C)C)C(=O)OC(C)C(NC(=O)C(NC(=O)C(C(C)C)N(C)C)C(C)C)C(=O)N(C)C(C(C)O)C(=O)NC(C(C)C)C(=O)N(C)C(CC(C)C)C(=O)NC(C(C)C)C(=O)N(C)C(C(C)C)C(=O)N3C)c12 (stereo not drawn) [OMS-B, Ohmyungsamycin B] (ξNMe2Val-VT[NMeT]V[NMeL]V[NMeV][NMeTrp(4-OMe)]V[X1]V; ester 2-C; configuration not given here) | – | increased as compared with LC3-I | decreases in a concentration-dependent manner | increased level | increased | increased | 0.117 µM (≈ 0.172 µg/mL) | excellent anti-Mycobacterium tuberculosis activity | induced | induced | increased | great | – | –
Cn1cnc(N)c2ncnc1-2 [3-MA, 3-methyladenine, reference compound] | decreased | – | – | – | – | – | – | – | – | – | – | – | – | –
NCC[C@H](O)C(=O)N[C@@H]1C[C@H](N)[C@@H](O[C@H]2O[C@H](CN)[C@@H](O)[C@H](O)[C@H]2O)[C@H](O)[C@H]1O[C@H]1O[C@H](CO)[C@@H](O)[C@H](N)[C@H]1O [AMK, amikacin, reference compound] | – | – | – | – | – | – | – | – | – | – | – | – | increased viability | –
CNC(C(=O)NC(C(=O)NC1C(=O)N(C)C(C(C)O)C(=O)NC(C(C)C)C(=O)N(C)C(CC(C)C)C(=O)NC(C(C)C)C(=O)N(C)C(C(C)C)C(=O)N(C)C(Cc2c[nH]c3cccc(OC)c23)C(=O)NC(C(C)C)C(=O)NC(C(O)c2ccccc2)C(=O)NC(C(C)C)C(=O)OC1C)C(C)C)C(C)C (stereo not drawn) [OMS-A, Ohmyungsamycin A] (H-[NMeV]VT[NMeT]V[NMeL]V[NMeV][NMeTrp(4-OMe)]V[X1]V; ester 3-C; configuration not given here) | – | increased as compared with LC3-I | decreases in a concentration-dependent manner | increased level | increased | increased | 0.057 µM (≈ 0.0832 µg/mL) | excellent anti-Mycobacterium tuberculosis activity | induced | induced | increased | great | increased viability | decreased in a concentration-dependent manner
